The target of this assay is GCN2 (Homo sapiens, UniProt Q9P2K8). The assay can be described thus: GCN2 enzymatic endpoint assay: phosphorylation of GFP-eIF2α measured by TR-FRET (Lanthascreen). The class given is biochemical. The following applies: tested as described in Example 77; compound and/or hydrochloride, dihydrochloride or trifluoroacetic acid salt; read-out: IC 50 Activity. An outline of the steps:
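Kinase activity is measured as phosphorylation of GFP-labelled eIF2α (80 nM) with ATP at 2 μM. Incubation runs 90 minutes at room temperature before EDTA quench and terbium-antibody detection.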
(TR-FRET usually uses a lanthanide donor and a delayed reading to cut background.)

Structures are written as SMILES.

GCN2, sequence (Q9P2K8 whole entry): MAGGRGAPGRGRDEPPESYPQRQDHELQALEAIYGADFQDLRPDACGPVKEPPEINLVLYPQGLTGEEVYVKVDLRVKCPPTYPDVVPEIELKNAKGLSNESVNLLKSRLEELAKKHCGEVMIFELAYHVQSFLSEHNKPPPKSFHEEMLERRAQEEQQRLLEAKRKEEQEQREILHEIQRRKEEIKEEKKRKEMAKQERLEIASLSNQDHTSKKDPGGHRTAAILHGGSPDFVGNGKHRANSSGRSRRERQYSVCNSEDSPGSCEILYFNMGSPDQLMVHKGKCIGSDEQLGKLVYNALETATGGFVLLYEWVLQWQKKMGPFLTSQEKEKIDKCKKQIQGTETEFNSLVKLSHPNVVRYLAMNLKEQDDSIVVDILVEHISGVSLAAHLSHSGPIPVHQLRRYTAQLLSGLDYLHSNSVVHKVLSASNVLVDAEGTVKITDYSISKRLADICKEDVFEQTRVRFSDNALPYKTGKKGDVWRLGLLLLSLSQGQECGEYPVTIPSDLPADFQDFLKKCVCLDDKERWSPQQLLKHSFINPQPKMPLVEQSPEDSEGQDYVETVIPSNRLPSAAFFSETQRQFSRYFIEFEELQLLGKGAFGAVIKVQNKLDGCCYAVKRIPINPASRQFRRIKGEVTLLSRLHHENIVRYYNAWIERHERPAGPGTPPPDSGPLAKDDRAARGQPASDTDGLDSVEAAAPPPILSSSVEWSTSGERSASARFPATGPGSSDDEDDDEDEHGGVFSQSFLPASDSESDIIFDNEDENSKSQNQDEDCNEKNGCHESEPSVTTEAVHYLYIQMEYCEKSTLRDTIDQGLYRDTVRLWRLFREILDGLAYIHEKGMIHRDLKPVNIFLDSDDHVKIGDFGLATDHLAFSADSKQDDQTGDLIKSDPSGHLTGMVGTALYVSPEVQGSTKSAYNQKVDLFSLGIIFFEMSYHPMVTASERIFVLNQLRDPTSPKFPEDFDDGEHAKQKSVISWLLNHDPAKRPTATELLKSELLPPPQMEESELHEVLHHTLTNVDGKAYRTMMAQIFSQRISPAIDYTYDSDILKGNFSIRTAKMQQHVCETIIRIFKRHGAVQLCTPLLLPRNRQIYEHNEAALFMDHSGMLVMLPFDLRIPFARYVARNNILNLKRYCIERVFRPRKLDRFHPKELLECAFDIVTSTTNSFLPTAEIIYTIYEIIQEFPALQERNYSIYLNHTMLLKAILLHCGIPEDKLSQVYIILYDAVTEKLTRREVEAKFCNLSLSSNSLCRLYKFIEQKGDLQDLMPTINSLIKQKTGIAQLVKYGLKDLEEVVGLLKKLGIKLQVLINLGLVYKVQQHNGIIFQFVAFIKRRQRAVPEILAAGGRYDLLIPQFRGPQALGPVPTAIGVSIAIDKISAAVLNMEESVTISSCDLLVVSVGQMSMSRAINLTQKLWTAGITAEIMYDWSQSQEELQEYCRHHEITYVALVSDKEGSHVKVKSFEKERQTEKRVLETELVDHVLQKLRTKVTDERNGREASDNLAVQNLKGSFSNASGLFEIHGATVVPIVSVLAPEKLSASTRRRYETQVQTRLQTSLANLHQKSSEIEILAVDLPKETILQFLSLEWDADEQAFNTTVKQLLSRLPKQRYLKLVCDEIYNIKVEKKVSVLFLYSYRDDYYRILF

Turning to `CNC(=O)[C@]1(CC(F)(F)F)CC[C@@H](Nc2ncc3c(Br)nn(-c4cc(F)c5ncccc5c4)c3n2)C1` [(1R,3R)-3-[[3-bromo-1-(8-fluoro-6-quinolyl)pyrazolo[3,4-d]pyrimidin-6-yl]amino]-N-methyl-1-(2,2,2-trifluoroethyl)cyclopentane-carboxamide], the IC50 was less than 25 nM. In the case of `O[C@@H]1CC[C@@H](Nc2ncc3c(Br)nn(-c4cc(F)c5ncccc5c4)c3n2)C1` [(1R,3R)-3-[[3-bromo-1-(8-fluoro-6-quinolyl)pyrazolo[3,4-d]pyrimidin-6-yl]amino]cyclopentanol] it was 25 to 200 nM; in that of `CNC(=O)[C@@H]1CC[C@@H](Nc2ncc3c(Br)nn(-c4cc(OC)c5ncccc5c4)c3n2)C1` [(1R,3R)-3-[[3-bromo-1-(8-methoxy-6-quinolyl)pyrazolo[3,4-d]pyrimidin-6-yl]amino]-N-methyl-cyclopentanecarboxamide], less than 25 nM.

In the case of `CNC(=O)[C@]1(C)CC[C@@H](Nc2ncc3c(Br)nn(-c4cc(C5CNCCO5)c5ncccc5c4)c3n2)C1` (stereo partly drawn) [(1R,3R)-3-[[3-bromo-1-(8-morpholin-2-yl-6-quinolyl)pyrazolo[3,4-d]pyrimidin-6-yl]amino]-N,1-dimethyl-cyclopentane-carboxamide], the IC50 lay in the range of 25 to 200 nM. Under `CNC(=O)[C@]1(C)CC[C@@H](Nc2ncc3c(Br)nn(-c4cc(C5CCNC5)c5ncccc5c4)c3n2)C1` (stereo partly drawn) [(1R,3R)-3-[[3-bromo-1-(8-pyrrolidin-3-yl-6-quinolyl)pyrazolo[3,4-d]pyrimidin-6-yl]amino]-N,1-dimethyl-cyclopentane-carboxamide] stands less than 25 nM. Regarding `CNC(=O)[C@]1(C)CC[C@@H](Nc2ncc3c(Br)nn(-c4cc(C5CCCO5)c5ncccc5c4)c3n2)C1` (stereo partly drawn) [(1R,3R)-3-[[3-bromo-1-(8-tetrahydrofuran-2-yl-6-quinolyl)pyrazolo[3,4-d]pyrimidin-6-yl]amino]-N,1-dimethyl-cyclopentane-carboxamide], the IC50 fell in the range of 25 to 200 nM. Under `CNC(=O)[C@]1(C)CC[C@@H](Nc2ncc3c(Br)nn(-c4ccc5nncn5c4)c3n2)C1` [(1R,3R)-3-[[3-bromo-1-([1,2,4]triazolo [4,3-a]pyridin-6-yl)pyrazolo[3,4-d]pyrimidin-6-yl]amino]-N,1-dimethyl-cyclopentanecarboxamide] stands 25 to 200 nM; under `CNC(=O)[C@]1(C)CC[C@@H](Nc2ncc3c(Br)nn(-c4ccc5ncnn5c4)c3n2)C1` [(1R,3R)-3-[[3-bromo-1-([1,2,4]triazolo[1,5-a]pyridin-6-yl)pyrazolo[3,4-d]pyrimidin-6-yl]amino]-N,1-dimethyl-cyclopentane-carboxamide], 25 to 200 nM. Under `CNC(=O)[C@]1(C)CC[C@@H](Nc2ncc3c(Br)nn(-c4ccc5c(c4)CCC(=O)N5CC(F)F)c3n2)C1` [(1R,3R)-3-[[3-bromo-1-[1-(2,2-difluoro-ethyl)-2-oxo-3,4-dihydroquinolin-6-yl]pyrazolo[3,4-d]pyrimidin-6-yl]amino]-N,1-dimethyl-cyclopentanecarboxamide] stands 25 to 200 nM; under `CNC(=O)[C@]1(C)CC[C@@H](Nc2ncc3c(Br)nn(-c4ccc5c(c4)CCC(=O)N5CCO)c3n2)C1` [(1R,3R)-3-[[3-bromo-1-[1-(2-hydroxy-ethyl)-2-oxo-3,4-dihydroquinolin-6-yl]pyrazolo[3,4-d]pyrimidin-6-yl]amino]-N,1-dimethyl-cyclopentanecarboxamide], 25 to 200 nM. Under `CNC(=O)[C@]1(C)CC[C@@H](Nc2ncc3c(Br)nn(-c4ccc5c(c4)CCC(=O)N5CC#N)c3n2)C1` [(1R,3R)-3-[[3-bromo-1-[1-(cyano-methyl)-2-oxo-3,4-dihydroquinolin-6-yl]pyrazolo[3,4-d]pyrimidin-6-yl]amino]-N,1-dimethyl-cyclopentane-carboxamide] stands 25 to 200 nM; under `CNC(=O)[C@]1(C)CC[C@@H](Nc2ncc3c(Br)nn(-c4ccc5c(c4)CCN(C(=O)C4CN(C)C4)C5)c3n2)C1` [(1R,3R)-3-[[3-bromo-1-[2-(1-methylazetidine-3-carbonyl)-3,4-dihydro-1H-isoquinolin-6-yl]pyrazolo[3,4-d]pyrimidin-6-yl]amino]-N,1-dimethyl-cyclopentanecarboxamide], 25 to 200 nM.

For the compound `CNC(=O)[C@]1(C)CC[C@@H](Nc2ncc3c(Br)nn(-c4ccc5c(c4)CN(S(=O)(=O)CC(F)F)C5)c3n2)C1` [(1R,3R)-3-[[3-bromo-1-[2-(2,2-difluoroethylsulfonyl)isoindolin-5-yl]pyrazolo[3,4-d]pyrimidin-6-yl]amino]-N,1-dimethyl-cyclopentanecarboxamide], the IC50 was 25 to 200 nM. Under `CNC(=O)[C@]1(C)CC[C@@H](Nc2ncc3c(Br)nn(-c4ccc5c(c4)CN(C(=O)CO)CC5)c3n2)C1` [(1R,3R)-3-[[3-bromo-1-[2-(2-hydroxyacetyl)-3,4-dihydro-1H-isoquinolin-7-yl]pyrazolo [3,4-d]pyrimidin-6-yl]amino]-N,1-dimethyl-cyclopentanecarboxamide] stands 25 to 200 nM; under `CNC(=O)[C@]1(C)CC[C@@H](Nc2ncc3c(Br)nn(-c4ccc5nc(N6CCN(C)CC6)ncc5c4)c3n2)C1` [(1R,3R)-3-[[3-bromo-1-[2-(4-methylpiperazin-1-yl)quinazolin-6-yl]pyrazolo[3,4-d]pyrimidin-6-yl]amino]-N,1-dimethyl-cyclo-pentanecarboxamide; 2,2,2-trifluoroacetic acid], 25 to 200 nM. Under `CNC(=O)[C@]1(C)CC[C@@H](Nc2ncc3c(Br)nn(-c4ccc5c(c4)CN(S(=O)(=O)C4COC4)C5)c3n2)C1` [(1R,3R)-3-[[3-bromo-1-[2-(oxetan-3-ylsulfonyl)isoindolin-5-yl]pyrazolo[3,4-d]pyrimidin-6-yl]amino]-N,1-dimethyl-cyclopentanecarboxamide] stands 25 to 200 nM. Under `CNC(=O)[C@]1(C)CC[C@@H](Nc2ncc3c(Br)nn(-c4ccc5c(c4)CN(C(=O)C4CN(C(=O)C(F)(F)F)C4)CC5)c3n2)C1` [(1R,3R)-3-[[3-bromo-1-[2-[1-(2,2,2-trifluoroacetyl)azetidine-3-carbonyl]-3,4-dihydro-1H-isoquinolin-7-yl]pyrazolo[3,4-d]pyrimidin-6-yl]amino]-N,1-dimethyl-cyclopentanecarboxamide] stands 25 to 200 nM; under `CNC(=O)[C@]1(C)CC[C@@H](Nc2ncc3c(Br)nn(-c4ccc5nc(CNCCC#N)ccc5c4)c3n2)C1` [(1R,3R)-3-[[3-bromo-1-[2-[(2-cyanoethylamino)methyl]-6-quinolyl]pyrazolo[3,4-d]pyrimidin-6-yl]amino]-N,1-dimethyl-cyclopentane-carboxamide], 25 to 200 nM. Take `CNC(=O)[C@]1(C)CC[C@@H](Nc2ncc3c(Br)nn(-c4ccc(-c5ncco5)c(C(C)(C)C#N)c4)c3n2)C1` [(1R,3R)-3-[[3-bromo-1-[3-(1-cyano-1-methyl-ethyl)-4-oxazol-2-yl-phenyl]pyrazolo[3,4-d]pyrimidin-6-yl]amino]-N,1-dimethyl-cyclopentanecarboxamide]: the IC50 lay within 25 to 200 nM. In the case of `CNC(=O)[C@]1(C)CC[C@@H](Nc2ncc3c(Br)nn(-c4ccc5ncc(C(C)(C)O)cc5c4)c3n2)C1` [(1R,3R)-3-[[3-bromo-1-[3-(1-hydroxy-1-methyl-ethyl)-6-quinolyl]pyrazolo[3,4-d]pyrimidin-6-yl]amino]-N,1-dimethyl-cyclopentanecarboxamide] it was 25 to 200 nM.

The values are drawn from patent US11046699B2, “Pyrazolo-pyrimidin-amino-cycloalkyl compounds and their therapeutic uses” (RAPT THERAPEUTICS, INC., priority 2018, dated 2021).
